From patent US20240140962A1, “5,6-DIHYDROTHIENO[3,4-H]QUINAZOLINE COMPOUND” (MEDSHINE DISCOVERY INC., priority 2021, published 2024)
Like-named read-outs stand apart in the source and are kept apart here.

Columns and labels:
[1] = tested on: human colon cancer HCT116 cells subcutaneous xenograft tumor; assay: In vivo pharmacodynamic study, subcutaneous xenograft tumor model of human colon cancer HCT116 cells; design: species or system BALB/c Nude mouse; details: 60 mg/kg PO QD (5 days on, 2 days off), tumor volume on day 22 after dosing
Experimental: In this experiment, human colon cancer HCT116 cells were subcutaneously transplanted into BALB/c Nude mouse model to evaluate the antitumor effect of the test compound in vivo.
HCT116 cell culture: 10% fetal calf serum was added to McCoy's 5A medium and cultured in 37° C. 5% CO2 cell incubator. When the cell saturation reached 80% to 90% and the number reached the requirement, cells were collected, counted and inoculated subcutaneously into BALB/c Nude mice (female, 6 to 7 weeks old)
When the tumors grew to a certain size, the animals with tumor volumes that were too large, too small, or with irregular tumor shapes were eliminated, and animals with tumor volumes ranging from 103.12 to 174.35 mm^3 were selected. According to the tumor volume, the animals were divided into 6 groups by random block method, and each group was composed of 6 mice wherein the average volume of the tumor was about 147.12 mm^3 , and the experimental grouping and dosing regimen were shown in Table 5 below. The health status and death of the animals were monitored every day. Routine inspections included observation of tumor growth and the effects of drug treatment on the daily behavior of the animals, such as behavioral activities, food and water intake, body weight changes (measured twice a week), tumor size (tumor volume was measured twice a week), appearance signs or other abnormal conditions.
The formula for calculating tumor volume (TV) was: ½×a×b^2, where a and b were the measured length and width of the tumor, respectively. The formula for calculating the tumor inhibition rate TGI (%) was: TGI (%)=[1−(average tumor volume at the end of administration of a certain treatment group−average tumor volume at the beginning of administration of this treatment group)/(average tumor volume at the end of treatment of the solvent control group−average tumor volume at the beginning of treatment in solvent control group)]×100%.
In this study, the experimental data were expressed as Mean±SEM. Statistical analysis was based on the data of RTV at the end of the experiment using IBM SPSS Statistics software. The comparison between two groups was analyzed by T test, and the comparison between three or more groups was analyzed by one-way ANOVA. If the variances were homogeneous (the F value had no significant difference), the Tukey's method was used for analysis. If the variances were not homogeneous (the F value had significant differences), and the Games-Howell method was used for testing. p<0.05 was considered as a significant difference.

HCT116 cells = assay: HCT116 cytological activity in vitro (3D CellTiter-Glo proliferation); type: cell-based, human; details: 5 days culture, ultra-low adsorption plates
Experimental: McCoy's 5A medium, penicillin/streptomycin antibiotics was purchased from Vicente, and fetal bovine serum was purchased from Biosera. 3D CellTiter-Glo (cell viability chemiluminescence assay reagent) reagent was purchased from Promega. HCT116 cell line was purchased from Nanjing Cobioer Biosciences Co., Ltd. Envision multimode microplate reader (PerkinElmer).
HCT116 cells were seeded in ultra-low adsorption 96-well U-plates, 80 μL of cell suspension per well, which contained 1000 HCT116 cells. Cell plates were cultured overnight in a carbon dioxide incubator.
The compound to be tested was 5-fold diluted to the 9th concentration with a pipette, that is, diluted from 2 mM to 5.12 nM, and a double-well experiment was set up. 78 μL of medium was added to the intermediate plate, and then 2 μL of each well of the gradient diluted compound was transferred to the intermediate plate according to the corresponding position, 20 μL of each well was transferred to the cell plate after mixing well. Compound concentrations transferred to cell plates ranged from 10 μM to 0.0256 nM. Cell plates were cultured in a carbon dioxide incubator for 5 days. Another cell plate was prepared, and the signal value was read as the maximum value (Max value in the following equation) on the day of drug addition to participate in data analysis.
Every 100 μL of cell viability chemiluminescent detection reagent was added to the cell plate, and incubated at room temperature for 10 minutes to stabilize the luminescent signal. A multimode microplate reader was used to read.
The equation (Sample−Min)/(Max−Min)*100% was used to convert the original data into an inhibition rate, and the value of IC50 can be obtained by curve fitting with four parameters (“log(inhibitor) vs. response in GraphPad Prism—Variable slope” mode). Table 3 provides the inhibitory activity of the compounds of the present disclosure against the proliferation of HCT116 cells.

[2] = Pharmacokinetic study in CD-1 male mice by oral administration and intravenous injection; type: in vivo; details: for Vd: read-out: Apparent volume of distribution Vdss; for AUC(0-t): read-out: Area under the plasma concentration-time curve AUC0-24 h; for clearance: read-out: Clearance CL; for half-life: read-out: Half-life T½ (converted); for Cmax: read-out: Peak concentration Cmax; for Tmax: read-out: Peak time Tmax; for bioavailability: read-out: Bioavailability F
Text: The purpose of this experiment is to study the pharmacokinetics of the test compound in the plasma of CD-1 male mice after intravenous injection and oral administration.
Intravenous injection group: an appropriate amount of the test compound was weighed and dissolved in 20% SBE-b-CD aqueous solution and the pH was adjusted to 4 to 5 with 6 M hydrochloric acid, and the mixture was vortexed for 2, minutes to obtain a clear solution, and then pH was adjusted around 7 with 5 N sodium hydroxide, and the mixture was vortexed for 1 minute to prepare a 1.5 mg/mL clear solution, which was filtered through a 0.22 μm microporous membrane for later use. CD-1 male mice from 6 to 10 weeks old were selected and given a solution of the test compound intravenously. Samples were collected at 0.083, 0.25, 0.5, 1, 2, 4, 6, 8, and 24 hours.
Oral administration group: an appropriate amount of the test compound was weighed and dissolved in 20% SBE-b-CD aqueous solution, and the pH was adjusted to 3 to 4 with 6 M hydrochloric acid, and the mixture was vortexed for 2, minutes to obtain a clear solution, and then pH was adjusted around 7 with 5 N sodium hydroxide, and mixture was vortexed for 1 minute to prepare a 2.0 mg/mL clear solution for later use. CD-1 male mice between 6 and 10 weeks of age were selected and given the test compounds orally. Samples were collected at 0.25, 0.5, 1, 2, 4, 6, 8, 10, and 24 hours.
Approximately 50 μL of whole blood was collected through the jugular vein at each time point for plasma preparation for concentration determination by high performance liquid chromatography-tandem mass spectrometry (LC-MS/MS). All animals were euthanized under CO2 anesthesia after collecting the PK samples at the last time point. The plasma concentration was processed using the non-compartmental model of WinNonlin™ Version 6.3 (Pharsight, Mountain View, CA) pharmacokinetic software, and the pharmacokinetic parameters were calculated using the linear logarithmic trapezoidal method, and the experimental results are shown in Table 4.

[3] = biological target: human PLK1 protein kinase (Homo sapiens (Human), UniProt P53350); assay: PLK1 kinase activity in vitro, 33P isotope-labeled kinase activity assay; type: biochemical; details: 33P-ATP 30 μM, substrate Casein, PLK1 12 nM
Chain of human PLK1 protein kinase (P53350 whole entry): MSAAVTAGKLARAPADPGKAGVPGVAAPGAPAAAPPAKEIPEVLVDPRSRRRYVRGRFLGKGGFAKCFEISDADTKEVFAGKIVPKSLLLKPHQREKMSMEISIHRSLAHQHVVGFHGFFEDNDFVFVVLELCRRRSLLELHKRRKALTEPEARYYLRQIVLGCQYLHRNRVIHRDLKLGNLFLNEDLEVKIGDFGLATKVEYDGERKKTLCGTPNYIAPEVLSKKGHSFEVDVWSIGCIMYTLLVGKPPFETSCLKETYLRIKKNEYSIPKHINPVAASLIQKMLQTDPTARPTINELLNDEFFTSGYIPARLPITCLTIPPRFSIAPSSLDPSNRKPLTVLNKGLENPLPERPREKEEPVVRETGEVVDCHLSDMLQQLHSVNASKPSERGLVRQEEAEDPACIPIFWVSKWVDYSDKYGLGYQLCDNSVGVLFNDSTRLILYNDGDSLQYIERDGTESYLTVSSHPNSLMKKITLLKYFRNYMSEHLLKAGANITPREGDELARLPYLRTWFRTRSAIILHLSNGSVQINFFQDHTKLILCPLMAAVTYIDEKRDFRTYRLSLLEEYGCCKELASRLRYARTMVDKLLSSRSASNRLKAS
Experimental: The ^33P isotope-labeled kinase activity assay (Reaction Biology Corp) was used to determine the IC50 value to evaluate the inhibitory ability of the test compound to human PLK1 protein kinase.
Buffer conditions: 20 mM HEPES (pH 7.5), 10 mM MgCl2, 1 mM EGTA, 0.01% Brij35, 0.02 mg/ml BSA, 0.1 mM Na3VO4, 2 mM DTT, 1% DMSO
Test steps: At room temperature, the compounds to be tested were dissolved in DMSO to prepare a 10 mM solution for use. The substrate Casein was dissolved in a freshly prepared buffer (with a final concentration of 20 μM), and the tested PLK1 kinase (with a final concentration of 12 nM) was added thereto and mixed well. The acoustic wave pipetting system Echo 550 was used to add the mother solution of the test compound dissolved in DMSO to the above mixed reaction mixture according to the set final concentration gradient (the highest final concentration was 1 μM, 3-fold dilution, 10 gradients). After incubation at room temperature for 20 minutes, ^33P-ATP (30 μM) was added, and after incubation at room temperature for 120 minutes, the reaction mixture was spotted on P81 ion exchange filter paper (Whatman #3698-915).

[4] = tested on: KRAS-mutant mCRC patients; details: cited from earlier work

In the case of `CCOc1sc(C(N)=O)c2c1-c1nc(Nc3cc(N4CCN(C)CC4)ccc3OC(F)(F)F)ncc1CC2` [Compound 2], the TGI [1] is reported as 72.5%, the IC50 (HCT116 cells; Homo sapiens, HCT-116, 120 h) is reported as 30.8 nM and the Vd ([2]; mouse, IV, 1.0 mg/kg, plasma) is reported as 2.89 L/kg. For the same molecule, the AUC(0-t) ([2]; mouse, IV, 1.0 mg/kg, plasma) was 0.624 µM·h, the clearance ([2]; mouse, IV, 1.0 mg/kg, plasma) was 47.9 mL/min/kg and the half-life ([2]; mouse, IV, 1.0 mg/kg, plasma) was 69 min. The AUC(0-t) ([2]; mouse, PO, 3.0 mg/kg, plasma) was 1.02 µM·h, the Cmax ([2]; mouse, PO, 3.0 mg/kg, plasma) was 478 nM and the Tmax ([2]; mouse, PO, 3.0 mg/kg, plasma) was 45 min. For the same molecule, the bioavailability ([2]; mouse, plasma, PO 3.0 mg/kg vs IV 1.0 mg/kg) was 54.2%.

Work on `CN1CCN(c2ccc(OC(F)(F)F)c(Nc3ncc4c(n3)-c3c(SCCO)sc(C(N)=O)c3CC4)c2)CC1` [Compound 3] yielded an IC50 [3] of 5 nM.

`CSc1sc(C(N)=O)c2c1-c1nc(Nc3cc(N4CCN(C)CC4)ccc3OC(F)F)ncc1CC2` [Compound 4] gave an IC50 (HCT116 cells) of 35 nM and an IC50 [3] of 1 nM.

`CSc1sc(C(N)=O)c2c1-c1nc(Nc3cc(N4CCN(C)CC4)ncc3OC(F)(F)F)ncc1CC2` [Compound 5] showed an IC50 [3] of 2.6 nM.

`CN1CCN(c2ccc(OC(F)(F)F)c(Nc3ncc4c(n3)-c3c(CCO)sc(C(N)=O)c3CC4)c2)CC1` [Compound 6] showed an IC50 [3] of 6.9 nM.

With `CSc1sc(C(N)=O)c2c1-c1nc(Nc3cc(N4CCN(CCO)CC4)ccc3OC(F)(F)F)ncc1CC2` [Compound 8] the TGI [1] was 85.4%, the IC50 (HCT116 cells; Homo sapiens, HCT-116, 120 h) was 52 nM and the Vd ([2]; mouse, IV, 0.5 mg/kg, plasma) was 2.04 L/kg. It also gave an AUC(0-t) ([2]; mouse, IV, 0.5 mg/kg, plasma) of 0.374 µM·h, a clearance ([2]; mouse, IV, 0.5 mg/kg, plasma) of 37.4 mL/min/kg and a half-life ([2]; mouse, IV, 0.5 mg/kg, plasma) of 44.4 min. For the same molecule, the AUC(0-t) ([2]; mouse, PO, 2.2 mg/kg, plasma) was 0.459 µM·h, the Cmax ([2]; mouse, PO, 2.2 mg/kg, plasma) was 157 nM and the Tmax ([2]; mouse, PO, 2.2 mg/kg, plasma) was 45 min. It also gave a bioavailability ([2]; mouse, plasma, PO 2.2 mg/kg vs IV 0.5 mg/kg) of 30.9%.

`CN1CCN(c2ccc(OC(F)(F)F)c(Nc3ncc4c(n3)-c3c(C#N)sc(C(N)=O)c3CC4)c2)CC1` [Compound 13] showed an IC50 [3] of 4.9 nM.

`CSc1sc(C(N)=O)c2c1-c1nc(Nc3cc(N4CC5CC(C4)N5C)ccc3OC(F)(F)F)ncc1CC2` [Compound 15] showed an IC50 [3] of 6.4 nM.

Work on `CN1CCN(c2ccc(OC(F)(F)F)c(Nc3ncc4c(n3)-c3c(C5CC5)sc(C(N)=O)c3CC4)c2)CC1` [Compound 16] yielded an IC50 (HCT116 cells; Homo sapiens, HCT-116, 120 h) of 29.2 nM.

In the case of `COc1nnc(N2CCN(C)CC2)cc1Nc1ncc2c(n1)-c1c(SC)sc(C(N)=O)c1CC2` [Compound 17], the IC50 (HCT116 cells; Homo sapiens, HCT-116, 120 h) is reported as 18.3 nM.

With `CN1CCN(c2ccc(OC(F)(F)F)c(Nc3ncc4c(n3)-c3c(OC5CC5)sc(C(N)=O)c3CC4)c2)CC1` [Compound 18] the IC50 (HCT116 cells) was 74.5 nM, the “Apparent volume of distribution Vdss” value ([2]; IV, 1.1 mg/kg, plasma) was 2.38 L/kg and the “Area under the plasma concentration-time curve AUC0-24 h” value ([2]; IV, 1.1 mg/kg, plasma) was 0.94 µM·h. For the same molecule, the “Clearance CL” value ([2]; IV, 1.1 mg/kg, plasma) was 31.4 mL/min/kg, the “Half-life T½” value ([2]; IV, 1.1 mg/kg, plasma) was 73.2 min and the “Bioavailability F” value ([2]; PO 3.4 mg/kg vs IV 1.1 mg/kg) was 82.5%. For the same molecule, the “Area under the plasma concentration-time curve AUC0-24 h” value ([2]; PO, 3.4 mg/kg, plasma) was 2.129 µM·h, the “Peak time Tmax” value ([2]; PO, 3.4 mg/kg, plasma) was 60 min and the Cmax ([2]; PO, 3.4 mg/kg, plasma) was 688 nM. It also gave an IC50 [3] of 4.3 nM.

For `CN1CCN(c2ccc(OC(F)(F)F)c(Nc3ncc4c(n3)-c3c(-c5ccco5)sc(C(N)=O)c3CC4)c2)CC1` [Compound 20], the IC50 (HCT116 cells; Homo sapiens, HCT-116, 120 h) was 58.6 nM.

Work on `CSc1sc(C(=O)NO)c2c1-c1nc(Nc3cc(N4CCN(C)CC4)ccc3OC(F)(F)F)ncc1CC2` [Compound 23] yielded an IC50 (HCT116 cells; Homo sapiens, HCT-116, 120 h) of 72 nM.

In the case of `CN1CCN(c2ccc(OC(F)(F)F)c(Nc3ncc4c(n3)-c3c(c(C(N)=O)nn3CCO)CC4)c2)CC1` [Onvansertib], the “safety profile in clinical studies” value ([4]; clinical studies) is given as “acceptable safety profile” and the clinical benefit ([4]; share of KRAS-mutant mCRC patients, early clinical research) is given as 88%.
